Experimental data taken from ChEMBL document CHEMBL1649228, “In vivo antibacterial activity of vertilmicin, a new aminoglycoside antibiotic” (2009).
≈ marks a conversion by molar mass, not a printed value.

Columns and labels:
Escherichia coli [1] = assay: Antimicrobial activity against Escherichia coli 9612 using 3.7 X 10^4 CFU inoculum by agar dilution method; type: functional
Staphylococcus aureus [2] = assay: Antimicrobial activity against methicillin-susceptible Staphylococcus aureus ATCC 29213 using 1.5 X 10^5 CFU inoculum by agar dilution method; type: functional
Staphylococcus aureus [3] = assay: Antimicrobial activity against methicillin-resistant Staphylococcus aureus 9344 using 2.5 X 10^5 CFU inoculum by agar dilution method; type: functional
Staphylococcus aureus [4] = assay: Antimicrobial activity against methicillin-susceptible Staphylococcus aureus 15 using 2.5 X 10^5 CFU inoculum by agar dilution method; type: functional
Enterococcus faecalis [5] = assay: Antimicrobial activity against Enterococcus faecalis ATCC 29212 using 2.8 X 10^7 by agar dilution method; type: functional
Enterococcus faecalis [6] = assay: Antimicrobial activity against Enterococcus faecalis HH22 using 1.8 X 10^8 by agar dilution method; type: functional
Escherichia coli [7] = assay: Antimicrobial activity against Escherichia coli ATCC 25922 infected in CD-1 ICR mouse using 1 X 10^5 CFU inoculum; type: functional
Escherichia coli [8] = assay: Antimicrobial activity against Escherichia coli 9612 infected in CD-1 ICR mouse using 3.7 X 10^4 CFU inoculum; type: functional
Escherichia coli [9] = assay: Antimicrobial activity against Escherichia coli 1515 infected in CD-1 ICR mouse using 2.4 X 10^6 CFU inoculum; type: functional
Klebsiella pneumoniae [10] = assay: Antimicrobial activity against Klebsiella pneumoniae 935 infected in CD-1 ICR mouse using 3 X 10^5 CFU inoculum; type: functional
Klebsiella pneumoniae [11] = assay: Antimicrobial activity against Klebsiella pneumoniae 967 infected in CD-1 ICR mouse using 2.6 X 10^5 CFU inoculum; type: functional
Staphylococcus aureus [12] = assay: Antimicrobial activity against methicillin-susceptible Staphylococcus aureus ATCC 29213 infected in CD-1 ICR mouse using 1.5 X 10^5 CFU inoculum; type: functional
Staphylococcus aureus [13] = assay: Antimicrobial activity against methicillin-resistant Staphylococcus aureus 9344 infected in CD-1 ICR mouse using 2.5 X 10^5 CFU inoculum; type: functional
Staphylococcus aureus [14] = assay: Antimicrobial activity against methicillin-susceptible Staphylococcus aureus 15 infected in CD-1 ICR mouse using 2.5 X 10^5 CFU inoculum; type: functional
Enterococcus faecalis [15] = assay: Antimicrobial activity against Enterococcus faecalis ATCC 29212 infected in CD-1 ICR mouse using 2.8 X 10^7 inoculum; type: functional
Enterococcus faecalis [16] = assay: Antimicrobial activity against Enterococcus faecalis HH22 infected in CD-1 ICR mouse using 1.8 X 10^8 inoculum; type: functional
Escherichia coli [17] = assay: microbe, parasite or virus in culture; settings: ATCC 25922
Description: Antimicrobial activity against Escherichia coli ATCC 25922 using 1 X 10^5 CFU inoculum by agar dilution method

Escherichia coli [18] = assay: microbe, parasite or virus in culture; settings: 1515
Description: Antimicrobial activity against Escherichia coli 1515 using 2.4 X 10^6 CFU inoculum by agar dilution method

Klebsiella pneumoniae [19] = assay: microbe, parasite or virus in culture; settings: 935
Description: Antimicrobial activity against Klebsiella pneumoniae 935 using 3 X 10^5 CFU inoculum by agar dilution method

Klebsiella pneumoniae [20] = assay: microbe, parasite or virus in culture; settings: 967
Description: Antimicrobial activity against Klebsiella pneumoniae 967 using 2.6 X 10^5 CFU inoculum by agar dilution method

Escherichia coli [21] = assay: Antimicrobial activity against Escherichia coli 9612 infected in new Zealand white rabbit with skin burn injury assessed as decrease in bacterial load in burn wound at 0.5 mg/ml after 24 hrs (reference value: 8.57 +/- 0.35 log10CFU/g); type: functional
Escherichia coli [22] = assay: Antimicrobial activity against Escherichia coli 9612 infected in new Zealand white rabbit with skin burn injury assessed as decrease in bacterial load in burn wound at 2 mg/ml after 24 hrs (reference value: 8.57 +/- 0.35 log10CFU/g); type: functional
Escherichia coli [23] = assay: Antimicrobial activity against Escherichia coli 9612 infected in CD-1 ICR mouse assessed as decrease in bacterial load in kidney at 20 mg/kg, sc after 72 hrs (reference value: 4.45 +/- 0.37 log10CFU/g); type: functional; settings: route subcutaneous
Escherichia coli [24] = assay: Antimicrobial activity against Escherichia coli 9612 infected in CD-1 ICR mouse assessed as decrease in bacterial load in kidney at 12 mg/kg, sc after 72 hrs (reference value: 4.45 +/- 0.37 log10CFU/g); type: functional; settings: route subcutaneous
Escherichia coli [25] = assay: Antimicrobial activity against Escherichia coli 9612 infected in CD-1 ICR mouse assessed as decrease in bacterial load in kidney at 7.2 mg/kg, sc after 72 hrs (reference value: 4.45 +/- 0.37 log10CFU/g); type: functional; settings: route subcutaneous
Escherichia coli [26] = assay: Antimicrobial activity against Escherichia coli 9612 infected in CD-1 ICR mouse assessed as decrease in bacterial load in kidney at 4.32 mg/kg, sc after 72 hrs (reference value: 4.45 +/- 0.37 log10CFU/g); type: functional; settings: route subcutaneous
Escherichia coli [27] = assay: Antimicrobial activity against Escherichia coli 9612 infected in CD-1 ICR mouse assessed as decrease in bacterial load in kidney at 2.59 mg/kg, sc after 72 hrs (reference value: 4.45 +/- 0.37 log10CFU/g); type: functional; settings: route subcutaneous

Compound	MIC (Escherichia coli [1])	MIC (Staphylococcus aureus [2])	MIC (Staphylococcus aureus [3])	MIC (Staphylococcus aureus [4])	MIC (Enterococcus faecalis [5])	MIC (Enterococcus faecalis [6])	ED50 (Escherichia coli [7])	ED50 (Escherichia coli [8])	ED50 (Escherichia coli [9])	ED50 (Klebsiella pneumoniae [10])	ED50 (Klebsiella pneumoniae [11])	ED50 (Staphylococcus aureus [12])	ED50 (Staphylococcus aureus [13])	ED50 (Staphylococcus aureus [14])	ED50 (Enterococcus faecalis [15])	ED50 (Enterococcus faecalis [16])	MIC (Escherichia coli [17])	MIC (Escherichia coli [18])	MIC (Klebsiella pneumoniae [19])	MIC (Klebsiella pneumoniae [20])	also measured
CCN[C@@H]1C[C@H](N)[C@@H](O[C@H]2OC(CN)=CC[C@H]2N)[C@H](O)[C@H]1O[C@H]1OC[C@](C)(O)[C@H](NC)[C@H]1O [NETILMICIN]	0.5 µg/mL (≈ 1.05 µM)	0.125 µg/mL (≈ 0.263 µM)	0.25 µg/mL (≈ 0.526 µM)	0.125 µg/mL (≈ 0.263 µM)	8 µg/mL (≈ 16.8 µM)	8 µg/mL (≈ 16.8 µM)	0.77 mg/kg	0.63 mg/kg	0.46 mg/kg	0.33 mg/kg	0.17 mg/kg	0.26 mg/kg	0.88 mg/kg	0.49 mg/kg	3.44 mg/kg	6.56 mg/kg	0.5 µg/mL (≈ 1.05 µM)	0.5 µg/mL (≈ 1.05 µM)	0.5 µg/mL (≈ 1.05 µM)	0.5 µg/mL (≈ 1.05 µM)	
CN[C@@H]1[C@@H](O)[C@@H](O[C@@H]2[C@@H](O)[C@H](O[C@@H]3OC(C(C)N)=CC[C@@H]3N)[C@@H](N)C[C@H]2N)OC[C@]1(C)O (stereo partly drawn) [VERDAMICIN]	4 µg/mL (≈ 8.67 µM)	0.125 µg/mL (≈ 0.271 µM)	0.25 µg/mL (≈ 0.542 µM)	0.125 µg/mL (≈ 0.271 µM)	8 µg/mL (≈ 17.3 µM)	> 128 µg/mL	1.09 mg/kg	2.66 mg/kg	0.49 mg/kg	0.29 mg/kg	0.16 mg/kg	0.23 mg/kg	1.33 mg/kg	0.66 mg/kg	5.24 mg/kg	> 100 mg/kg	0.5 µg/mL (≈ 1.08 µM)	0.5 µg/mL (≈ 1.08 µM)	0.5 µg/mL (≈ 1.08 µM)	0.25 µg/mL (≈ 0.542 µM)	
CCN[C@@H]1C[C@H](N)[C@@H](O[C@@H]2OC(C(C)N)=CC[C@@H]2N)[C@H](O)[C@H]1O[C@H]1OC[C@](C)(O)[C@H](NC)[C@H]1O (stereo partly drawn) [VERTILMICIN]	0.5 µg/mL (≈ 1.02 µM)	0.125 µg/mL (≈ 0.255 µM)	0.25 µg/mL (≈ 0.511 µM)	0.125 µg/mL (≈ 0.255 µM)	8 µg/mL (≈ 16.3 µM)	8 µg/mL (≈ 16.3 µM)	0.82 mg/kg	0.67 mg/kg	0.63 mg/kg	0.29 mg/kg	0.18 mg/kg	0.25 mg/kg	0.99 mg/kg	0.7 mg/kg	4.35 mg/kg	7.11 mg/kg	0.5 µg/mL (≈ 1.02 µM)	0.5 µg/mL (≈ 1.02 µM)	0.5 µg/mL (≈ 1.02 µM)	0.25 µg/mL (≈ 0.511 µM)	log10CFU/g (Escherichia coli [21]): 6.33; log10CFU/g (Escherichia coli [22]): 5; log10CFU/g (Escherichia coli [23]): 2.36; log10CFU/g (Escherichia coli [24]): 3.11; log10CFU/g (Escherichia coli [25]): 3.07; log10CFU/g (Escherichia coli [26]): 3.22; log10CFU/g (Escherichia coli [27]): 3.32
GENTAMICIN	8 µg/mL	0.125 µg/mL	0.25 µg/mL	0.125 µg/mL	8 µg/mL	> 128 µg/mL	1.5 mg/kg	7.88 mg/kg	1.11 mg/kg	0.68 mg/kg	0.32 mg/kg	0.6 mg/kg	2.84 mg/kg	0.61 mg/kg	17.5 mg/kg	> 100 mg/kg					
